# Data: ChEMBL document CHEMBL4387721, “Proteolysis targeting chimeras (PROTACs) in 'beyond rule-of-five' chemical space: Recent progress and future challenges” (Bioorg Med Chem Lett, 2019)
# Experiments:
# [1] = molecular target: T1, von Hippel-Lindau disease tumor suppressor/Focal adhesion kinase 1 (Homo sapiens, UniProt Q05397+P40337); test: Protac activity at VHL/FAK in serum deprived human PC3 cells assessed as induction of FAK protein degradation in serum deprived human PC3 cells after 24 hrs by Western blot analysis
# [2] = molecular target: T1, von Hippel-Lindau disease tumor suppressor/Focal adhesion kinase 1; test: Protac activity at VHL/FAK in serum deprived human PC3 cells assessed as induction of FAK protein degradation in serum deprived human PC3 cells at 50 nM after 24 hrs by Western blot analysis relative to control
# Target sequence in this assay (P40337 whole entry partner): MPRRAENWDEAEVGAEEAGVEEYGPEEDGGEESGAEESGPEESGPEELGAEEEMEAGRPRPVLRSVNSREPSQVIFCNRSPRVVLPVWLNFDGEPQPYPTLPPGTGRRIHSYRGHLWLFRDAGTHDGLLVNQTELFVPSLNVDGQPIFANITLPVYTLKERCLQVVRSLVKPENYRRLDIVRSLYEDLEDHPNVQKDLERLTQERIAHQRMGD
# Target sequence in this assay (Q05397 2-1052 limits assumed): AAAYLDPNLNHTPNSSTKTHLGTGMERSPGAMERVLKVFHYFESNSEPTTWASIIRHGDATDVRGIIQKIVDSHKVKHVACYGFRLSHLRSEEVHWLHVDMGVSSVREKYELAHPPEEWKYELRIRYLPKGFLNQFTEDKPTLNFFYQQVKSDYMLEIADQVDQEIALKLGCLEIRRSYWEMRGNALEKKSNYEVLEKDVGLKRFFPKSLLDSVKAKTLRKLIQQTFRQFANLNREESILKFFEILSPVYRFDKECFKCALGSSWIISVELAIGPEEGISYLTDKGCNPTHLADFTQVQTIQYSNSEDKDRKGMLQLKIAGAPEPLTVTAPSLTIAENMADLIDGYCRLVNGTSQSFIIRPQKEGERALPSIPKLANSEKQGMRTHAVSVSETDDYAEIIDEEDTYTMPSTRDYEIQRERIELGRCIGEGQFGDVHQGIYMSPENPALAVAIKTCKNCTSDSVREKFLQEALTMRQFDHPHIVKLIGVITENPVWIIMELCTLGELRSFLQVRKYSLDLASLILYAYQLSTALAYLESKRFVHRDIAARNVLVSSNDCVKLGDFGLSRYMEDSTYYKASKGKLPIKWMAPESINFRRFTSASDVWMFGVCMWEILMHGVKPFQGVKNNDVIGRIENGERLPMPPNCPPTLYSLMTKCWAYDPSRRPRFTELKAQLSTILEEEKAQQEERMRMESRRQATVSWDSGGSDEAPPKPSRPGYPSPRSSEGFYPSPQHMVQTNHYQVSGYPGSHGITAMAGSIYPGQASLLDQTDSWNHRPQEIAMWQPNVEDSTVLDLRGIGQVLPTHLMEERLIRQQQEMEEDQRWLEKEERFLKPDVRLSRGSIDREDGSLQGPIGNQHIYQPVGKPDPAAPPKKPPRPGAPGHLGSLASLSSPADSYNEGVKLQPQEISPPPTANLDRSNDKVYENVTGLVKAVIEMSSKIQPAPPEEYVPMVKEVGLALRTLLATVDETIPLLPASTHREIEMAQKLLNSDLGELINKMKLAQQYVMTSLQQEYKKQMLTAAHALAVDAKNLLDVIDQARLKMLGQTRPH
# [3] = molecular target: T2, BRD4/E3 ubiquitin-protein ligase Mdm2 (Homo sapiens, UniProt Q00987+O60885); test: Protac activity at BRD4/MDM2 in human HCT116 cells assessed as induction of BRD4 degradation at 100 nM after 24 hrs by immunoblotting analysis relative to control; assay type: cell-based
# [4] = molecular target: T2, BRD4/E3 ubiquitin-protein ligase Mdm2; test: Protac activity at BRD4/MDM2 in human HCT116 cells assessed as induction of BRD4 degradation at after 24 hrs by immunoblotting analysis; assay type: cell-based
# [5] = molecular target: T3, von Hippel-Lindau disease tumor suppressor/Bromodomain-containing protein 4 (Homo sapiens, UniProt O60885+P40337); test: Protac activity at VHL/BRD4 in human HeLa cells assessed as induction of BRD4 protein degradation at 50 nM up to 36 hrs by Western blot analysis relative to control; assay type: cell-based
# [6] = molecular target: T4, Protein cereblon/Cyclin-dependent kinase 9 (Homo sapiens, UniProt P50750+Q96SW2); test: Protac activity at CRBN/CDK9 in human HCT116 cells assessed as induction of CDK9 protein degradation after 6 hrs by Western blot analysis; assay type: cell-based
# Target sequence in this assay (P50750 whole entry): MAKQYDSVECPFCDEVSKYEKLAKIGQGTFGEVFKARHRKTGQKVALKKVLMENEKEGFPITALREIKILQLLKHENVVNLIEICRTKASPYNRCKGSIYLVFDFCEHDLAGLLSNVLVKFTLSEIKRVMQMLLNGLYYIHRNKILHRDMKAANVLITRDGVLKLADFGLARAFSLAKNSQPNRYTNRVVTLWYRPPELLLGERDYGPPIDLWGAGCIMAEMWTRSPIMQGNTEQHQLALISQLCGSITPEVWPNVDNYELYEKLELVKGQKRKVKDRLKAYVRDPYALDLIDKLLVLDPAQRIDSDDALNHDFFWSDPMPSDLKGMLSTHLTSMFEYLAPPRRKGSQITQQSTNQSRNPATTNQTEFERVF
# Target sequence in this assay (Q96SW2 whole entry): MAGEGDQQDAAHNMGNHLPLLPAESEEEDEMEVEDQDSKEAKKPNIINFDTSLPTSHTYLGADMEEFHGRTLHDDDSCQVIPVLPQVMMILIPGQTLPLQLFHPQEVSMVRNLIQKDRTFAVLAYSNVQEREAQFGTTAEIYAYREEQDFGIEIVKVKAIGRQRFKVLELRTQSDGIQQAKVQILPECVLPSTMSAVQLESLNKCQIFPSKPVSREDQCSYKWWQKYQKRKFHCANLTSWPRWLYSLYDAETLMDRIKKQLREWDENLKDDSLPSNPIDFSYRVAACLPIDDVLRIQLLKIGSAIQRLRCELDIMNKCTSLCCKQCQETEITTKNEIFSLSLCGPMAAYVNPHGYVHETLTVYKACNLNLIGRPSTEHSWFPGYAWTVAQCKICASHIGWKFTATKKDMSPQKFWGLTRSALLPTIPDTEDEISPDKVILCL
# [7] = molecular target: Protein cereblon/Tyrosine-protein kinase BTK (Homo sapiens, UniProt Q06187+Q96SW2); test: Protac activity at CRBN/BTK in human NAMALWA cells assessed as induction of BTK protein degradation at 100 nM incubated for 24 hrs by immunoblotting method relative to control; assay type: cell-based
# [8] = molecular target: T3, von Hippel-Lindau disease tumor suppressor/Bromodomain-containing protein 4; test: Protac activity at VHL/BRD4 short isoform in human HeLa cells assessed as induction of BRD4 short isoform degradation incubated for 24 hrs by Western blot analysis; assay type: cell-based
# [9] = molecular target: T3, von Hippel-Lindau disease tumor suppressor/Bromodomain-containing protein 4; test: Protac activity at VHL/BRD4 short isoform in human HeLa cells assessed as induction of BRD4 short isoform degradation incubated for 24 hrs by Western blot analysis relative to control; assay type: cell-based
# [10] = molecular target: T5, E3 ubiquitin-protein ligase XIAP/Tyrosine-protein kinase ABL1/Breakpoint cluster region protein (Homo sapiens, UniProt P00519+P98170+P11274); test: Protac activity at BCR-ABL/XIAP in human K562 cells assessed as induction of ABL protein degradation after 6 hrs by Western blot analysis; assay type: cell-based
# [11] = molecular target: T5, E3 ubiquitin-protein ligase XIAP/Tyrosine-protein kinase ABL1/Breakpoint cluster region protein; test: Protac activity at BCR-ABL/XIAP in human K562 cells assessed as induction of ABL protein degradation at 100 nM after 6 hrs by Western blot analysis relative to control; assay type: cell-based
# [12] = molecular target: T3, von Hippel-Lindau disease tumor suppressor/Bromodomain-containing protein 4; test: Protac activity at VHL/BRD4 in human 22Rv1 cells assessed as induction of BRD4 protein degradation incubated for 16 hrs by Western blot analysis relative to control; assay type: cell-based
# [13] = molecular target: von Hippel-Lindau disease tumor suppressor/Bromodomain-containing protein 2 (Homo sapiens, UniProt P25440+P40337); test: Protac activity at VHL/BRD2 in human 22Rv1 cells assessed as induction of BRD2 protein degradation incubated for 16 hrs by Western blot analysis; assay type: cell-based
# [14] = molecular target: Protein cereblon/Histone acetyltransferase KAT2B (Homo sapiens) (UniProt Q92831+Q96SW2); test: Protac activity at CRBN/PCAF in human THP1 cells assessed as induction of PCAF protein degradation incubated for 18 hrs by Western blot analysis relative to control; assay type: cell-based
# [15] = molecular target: Protein cereblon/Histone acetyltransferase KAT2A (Homo sapiens) (UniProt Q92830+Q96SW2); test: Protac activity at CRBN/GCN5 in human THP1 cells assessed as induction of GCN5 protein degradation at 1 nM incubated for 18 hrs by Western blot analysis relative to control; assay type: cell-based
# [16] = molecular target: T4, Protein cereblon/Cyclin-dependent kinase 9; test: Protac activity at CRBN/CDK9 in human HCT116 cells assessed as induction of CDK9 protein degradation at 20 uM after 6 hrs by Western blot analysis relative to control; assay type: cell-based
# Target sequence in this assay (P50750 whole entry, looked up): as the sequence (P50750 whole entry) above
# Target sequence in this assay (Q96SW2 whole entry, looked up): as the sequence (Q96SW2 whole entry) above
# T3 sequence (P40337 whole entry, looked up, other chains not shown): as the sequence (P40337 whole entry partner) above
# T2 sequence (Q00987 whole entry, looked up, other chains not shown): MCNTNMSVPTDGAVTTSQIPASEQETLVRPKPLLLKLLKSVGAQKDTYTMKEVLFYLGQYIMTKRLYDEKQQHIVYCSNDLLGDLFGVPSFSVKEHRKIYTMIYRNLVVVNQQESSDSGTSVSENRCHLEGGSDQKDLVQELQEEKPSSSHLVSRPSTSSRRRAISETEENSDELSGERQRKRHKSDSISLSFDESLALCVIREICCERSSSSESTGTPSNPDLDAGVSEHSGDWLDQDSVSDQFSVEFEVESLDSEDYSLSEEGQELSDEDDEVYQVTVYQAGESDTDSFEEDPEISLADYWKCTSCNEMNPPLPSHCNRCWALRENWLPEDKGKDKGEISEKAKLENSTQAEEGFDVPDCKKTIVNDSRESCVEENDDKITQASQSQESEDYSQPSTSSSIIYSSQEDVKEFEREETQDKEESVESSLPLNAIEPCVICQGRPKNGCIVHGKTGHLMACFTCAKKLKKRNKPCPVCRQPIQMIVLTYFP
# Sequence of von Hippel-Lindau disease tumor suppressor/Bromodomain-containing protein 2 (P25440 whole entry): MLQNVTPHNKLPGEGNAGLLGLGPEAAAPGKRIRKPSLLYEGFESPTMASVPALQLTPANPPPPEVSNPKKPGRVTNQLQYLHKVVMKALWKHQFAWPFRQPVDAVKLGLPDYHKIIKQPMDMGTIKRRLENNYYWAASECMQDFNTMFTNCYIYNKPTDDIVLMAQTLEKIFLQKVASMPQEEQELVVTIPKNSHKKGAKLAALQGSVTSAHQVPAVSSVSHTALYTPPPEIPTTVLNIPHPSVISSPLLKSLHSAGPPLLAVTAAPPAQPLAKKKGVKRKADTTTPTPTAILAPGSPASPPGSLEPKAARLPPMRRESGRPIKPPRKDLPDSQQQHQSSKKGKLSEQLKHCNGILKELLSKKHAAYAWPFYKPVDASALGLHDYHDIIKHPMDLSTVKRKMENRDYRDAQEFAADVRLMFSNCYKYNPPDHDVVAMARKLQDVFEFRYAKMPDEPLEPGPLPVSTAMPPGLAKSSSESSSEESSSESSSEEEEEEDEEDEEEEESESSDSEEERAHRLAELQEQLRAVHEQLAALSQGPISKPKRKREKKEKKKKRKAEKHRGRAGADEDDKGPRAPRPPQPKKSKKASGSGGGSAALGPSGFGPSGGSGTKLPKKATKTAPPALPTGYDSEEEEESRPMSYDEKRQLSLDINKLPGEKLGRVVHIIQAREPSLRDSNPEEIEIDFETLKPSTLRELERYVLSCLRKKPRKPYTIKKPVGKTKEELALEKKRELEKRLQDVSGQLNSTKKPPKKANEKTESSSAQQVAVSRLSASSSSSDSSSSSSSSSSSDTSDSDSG
# Sequence of von Hippel-Lindau disease tumor suppressor/Bromodomain-containing protein 2 (P40337 whole entry): as the sequence (P40337 whole entry partner) above
# Sequence of Protein cereblon/Histone acetyltransferase KAT2B (Homo sapiens) (Q92831 whole entry, looked up): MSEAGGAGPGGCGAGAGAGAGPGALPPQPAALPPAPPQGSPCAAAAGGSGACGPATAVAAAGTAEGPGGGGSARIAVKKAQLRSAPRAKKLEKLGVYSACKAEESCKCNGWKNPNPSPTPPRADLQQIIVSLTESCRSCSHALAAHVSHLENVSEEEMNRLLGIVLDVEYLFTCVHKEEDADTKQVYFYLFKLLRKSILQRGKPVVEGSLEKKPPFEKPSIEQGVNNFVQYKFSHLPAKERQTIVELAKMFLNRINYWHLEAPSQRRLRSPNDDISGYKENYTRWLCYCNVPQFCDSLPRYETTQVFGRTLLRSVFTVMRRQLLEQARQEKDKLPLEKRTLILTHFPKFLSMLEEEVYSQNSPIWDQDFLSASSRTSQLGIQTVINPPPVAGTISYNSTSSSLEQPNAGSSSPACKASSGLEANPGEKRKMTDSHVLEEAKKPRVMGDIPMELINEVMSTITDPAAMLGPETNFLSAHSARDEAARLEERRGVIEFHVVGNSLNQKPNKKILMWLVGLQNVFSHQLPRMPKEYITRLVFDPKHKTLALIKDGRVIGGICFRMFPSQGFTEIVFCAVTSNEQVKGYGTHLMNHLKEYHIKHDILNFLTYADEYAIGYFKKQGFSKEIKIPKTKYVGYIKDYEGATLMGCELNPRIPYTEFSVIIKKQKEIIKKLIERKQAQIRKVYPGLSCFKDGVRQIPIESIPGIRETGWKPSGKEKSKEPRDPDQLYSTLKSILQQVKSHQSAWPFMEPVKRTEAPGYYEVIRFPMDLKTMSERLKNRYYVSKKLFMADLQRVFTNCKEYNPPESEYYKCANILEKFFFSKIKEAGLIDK
# Sequence of Protein cereblon/Histone acetyltransferase KAT2B (Homo sapiens) (Q96SW2 whole entry, looked up): as the sequence (Q96SW2 whole entry) above
smiles,measurement,setting,value
Cc1ncsc1-c1ccc(CNC(=O)[C@@H]2C[C@@H](O)CN2C(=O)[C@@H](NC(=O)CCOCCOc2ccc(Nc3ncc(C(F)(F)F)c(NCc4cccc(N(C)S(C)(=O)=O)c4)n3)cc2)C(C)(C)C)cc1,DC50,[1],3 nM
same,Emax,[2],> 99%
COc1cc(C(=O)NCCOCCOCCOCCNC(=O)C[C@@H]2N=C(c3ccc(Cl)cc3)c3c(sc(C)c3C)-n3c(C)nnc32)ccc1NC(=O)[C@@H]1N[C@@H](CC(C)(C)C)[C@](C#N)(c2ccc(Cl)cc2F)[C@H]1c1cccc(Cl)c1F,Emax,[3],98%
same,DC50,[4],32 nM
Cc1ncsc1-c1ccc(CNC(=O)[C@@H]2C[C@@H](O)CN2C(=O)[C@@H](NC(=O)COCCOCCOCCNC(=O)C[C@@H]2N=C(c3ccc(Cl)cc3)c3c(sc(C)c3C)-n3c(C)nnc32)C(C)(C)C)cc1,Emax,[5],> 96%
O=C1CCC(N2C(=O)c3cccc(OCCCCCOc4ccc(CC(=O)Nc5cc(C6CCC6)n[nH]5)cc4)c3C2=O)C(=O)N1 (stereo unspecified),DC50,[6],10000 nM
Nc1ncnc2c1c(-c1ccc(Oc3ccccc3)cc1)nn2C1CCN(CCOCCOCC(=O)Nc2ccc3c(c2)C(=O)N(C2CCC(=O)NC2=O)C3=O)CC1 (stereo unspecified),Emax,[7],> 99%
CC(=O)N[C@H](C(=O)N1C[C@H](O)C[C@H]1C(=O)NCc1ccc(-c2scnc2C)cc1)C(C)(C)SCCCCCCNC(=O)C[C@@H]1N=C(c2ccc(Cl)cc2)c2c(sc(C)c2C)-n2c(C)nnc21,DC50,[8],10 to 100 nM
same,Emax,[9],> 90%
CN[C@@H](C)C(=O)N[C@H](C(=O)N1CCC[C@H]1c1nc(C(=O)c2cccc(OCCOCCOCCOCC(=O)N3CCN(c4cc(Nc5ncc(C(=O)Nc6c(C)cccc6Cl)s5)nc(C)n4)CC3)c2)cs1)C1CCCCC1,DC50,[10],3 to 10 nM
same,Emax,[11],> 90%
Cc1ncsc1-c1ccc([C@H](C)NC(=O)[C@@H]2C[C@@H](O)CN2C(=O)[C@@H](NC(=O)COCCCOCCNC(=O)C[C@@H]2N=C(c3ccc(Cl)cc3)c3c(sc(C)c3C)-n3c(C)nnc32)C(C)(C)C)cc1,Emax,[12],> 99%
same,DC50,[13],< 5 nM
CN1C[C@H](Nc2cnn(C)c(=O)c2Br)C[C@H](c2ccc(C(=O)N(C)CCCN(C)c3ccc(CCCOc4cccc5c4C(=O)N(C4CCC(=O)NC4=O)C5=O)cc3)cc2)C1 (stereo partly specified),Emax,[14],97%
same,Emax,[15],81%
O=C1CCC(N2C(=O)c3cccc(OCCCCCOc4ccc(CC(=O)Nc5cc(C6CCC6)[nH]n5)cc4)c3C2=O)C(=O)N1 (stereo unspecified),Emax,[16],> 65%
